From US12564568B2, “PKC pathway in Parkinson's Disease” (CEDARS-SINAI MEDICAL CENTER, priority 2018, dated 2026)
Entries after “also recorded” stand apart in the source; their conditions may differ. Like-named read-outs stand apart in the source and are kept apart here. Where a SMILES comes first, the peptide text is derived from it. The star is where a group is joined. Cbz = O=C(OCc1ccccc1)*

Tests used:
p-PKCα = conditions: for phospho PKCα level: D30 mDA neurons (FIG. 37)
α-synuclein [1] = test: α-synuclein protein level in day 30 iPSC-derived mDA (DaN) cultures after drug treatment (western blot, immunostaining); type: cell-based, human; conditions: for synuclein level: D30 mDA neurons (FIG. 37); for α-synuclein level: phorbol ester PKC agonists, PMA 10 μM, PRO 5 μM, day 27-30; for α-synuclein levels (western blot): EOSPD/PD cultures (190iPD); for α-synuclein levels (western blot) / amount of α-synuclein protein (western blot): treated 3 days from day 27, PEP005 1 μM, SMER-28 5 μM, Trehalose; for amount of α-synuclein protein (western blot): control line cultures (02iCTR)
Protocol: (§1) iPSC maintenance, mDA neuron differentiation and drug treatments: iPSCs were maintained in E8 media on Matrigel and passaged every 5 days at split ratios from 1:6 to 1:12 as needed using Versene. Only iPSCs between passage 17 and passage 35 were used in this study. For differentiation, iPSCs were grown to ˜80% confluency. Cells were singularized with Accutase (Millipore/Sigma #SCR005) (5 minutes at 37° C.) and plated onto Matrigel-coated 6-well plates (BD Biosciences) at 200K cells per cm^2 (for a fully confluent monolayer) in E8 media with 5 μM Y27632 (StemGent). 24 hours after plating, media was changed to Stage 1 (50% DMEM/F12, 50% Neurobasal, N2, B27-Vitamin A, LDN-193189 (LDN), SB431542 (SB)). Stage 1 media was changed each day (3 mL per well) for 3 days. Media was next switched to Stage 2 (50% DMEM/F12, 50% Neurobasal, N2, B27-Vitamin A, LDN, SB, Purmorphamine (PMN), CHIR99021 (CHIR), Sonic hedgehog (SHH), Fibroblast Growth Factor 8 (FGF8)). Stage 2 media was changed each day (3 mL per well) for 4 days. Media was then switched to Stage 3 (50% DMEM/F12, 50% Neurobasal, N2, B27-Vitamin A, LDN, CHIR, all-trans-Retinoic acid (ATRA)). Stage 3 media was changed each day (3 mL per well) for 4 days. Finally, media was switched to Stage 4 (50% DMEM/F12, 50% Neurobasal, N2, B27+Vitamin A, Brain-Derived Neurotrophic Factor (BDNF), Glial Cell Line-Derived Neurotrophic Factor (GDNF), dibutyryl cyclic-AMP sodium salt (dbCAMP), L-Ascorbic Acid (AA), γ-Secretase inhibitor (DAPT), CHIR, Transforming Growth Factor beta-3 (TGF β3)). Stage 4 media was changed each day (3 mL per well) for 3 days. On day 15, cells were dissociated to single cells using Accutase (20 mins at 37° C.) and gently lifted. Dissociated cells were resuspended in Maturation Medium (50% DMEM/F12, 50% Neurobasal, N2, B27+Vitamin A, BDNF, GDNF, dbCAMP, AA, DAPT, TGF3) plus 5 μM Y27632 and reseeded onto Matrigel-coated 6-well plates at 200 k/cm^2 in 1 mL total volume or onto Matrigel-coated L-glass coverslips in a 24-well plate at 200 k/50 μL drop. Cells were allowed to attach for 45 mins at 37° C. and Maturation Medium was then added to final volumes of 3 mL per well for 6-well plates or 1.5 mL per well for 24-well plates with coverslips. A full medium change was performed 48-hours post-seeding and medium was changed every 3 days until day 30. For drug treatments, cells at day-27 were fed with Maturation Medium containing the indicated drug and cells were analyzed at day 30.
Immunocytochemistry and imaging: mDA neuron cultures were plated on L-glass coverslips and grown as above. Day 30 neurons were fixed in 4% PFA at room temperature for 10-15 mins. Fixed coverslips were washed in PBS and permeabilized for 10 minutes at room temperature in 1% Triton X-100 in PBS, followed by staining in primary antibody solution (5% normal donkey serum, 0.125% Triton-X, PBS) overnight at 4° C. with the following antibodies: TH (1:5000, Immunostar #22941) and α-synuclein (1:500, Abcam #ab138501). Samples were washed 3 times in PBS and stained with species-specific Alexa Fluor 488 or 594-conjugated secondary antibodies (1:500, Invitrogen) for 2 hours at room temperature, followed by DAPI counterstain. Confocal Z-stack images were acquired using a A1 microscope (Nikon) with 40× and 20× objectives and rendered using maximum intensity projection through IMARIS software (Bitplane).
Western blot: Cells were gently scraped off the plates, washed with PBS, centrifuged at 15000 RPM for 1 min, and dry pellets were frozen at −80° C. Samples were then thawed and lysed using 1×NETN buffer (20 mM Tris-HCl (pH 8.0), 100 mM NaCl, 0.5 mM EDTA and 0.5% NP-40) supplemented with phosphatase/protease inhibitor cocktail (MS-SAFE, Sigma-Aldrich). Lysates were sonicated in an automated cold bath sonicator for 20 mins using alternating 10 sec pulses followed by 10 sec rests. Samples were centrifuged for 20 min at 4° C. at 15000 RPM. Total soluble protein concentrations were measured using a Bradford assay (BIO-RAD). […]

α-synuclein [2] = test: as above; type: cell-based, human; conditions: control and EOSPD cultures, 24 hrs treatment
P53 = P53 level in mDA cultures under proteasome inhibitor, 24 hrs (western blot); type: cell-based, human; conditions: mDA/DaN cultures, 24 hrs treatment
Protocol: Protein degradation can be largely divided into protosomal and autophagy/lysosomal degradation pathways.
Western blot: Cells were gently scraped off the plates, washed with PBS, centrifuged at 15000 RPM for 1 min, and dry pellets were frozen at −80° C. Samples were then thawed and lysed using 1×NETN buffer (20 mM Tris-HCl (pH 8.0), 100 mM NaCl, 0.5 mM EDTA and 0.5% NP-40) supplemented with phosphatase/protease inhibitor cocktail (MS-SAFE, Sigma-Aldrich). Lysates were sonicated in an automated cold bath sonicator for 20 mins using alternating 10 sec pulses followed by 10 sec rests. Samples were centrifuged for 20 min at 4° C. at 15000 RPM. Total soluble protein concentrations were measured using a Bradford assay (BIO-RAD). […] Combined α-synuclein and p-PKCα expression plots were calculated by first normalizing bands to β-actin, then to the 02iCTR signal present in each blot. […] ROC plot and area under the curve was determined using R package ROCR to determine predicative probability percentages.
To test overall degradation rates, global […] function was inhibited in culture for 48 hours via cycloheximide treatment and protein was assessed and quantified over time. […] A significant reduction in the amount of LAMP1 was detected in all 3 EOSPD lines, which was consistent with the proteomics analysis. […]

[3] = tested on: tyrosine hydroxylase (TH); type: cell-based, human; conditions: mDA cultures, phorbol ester PKC agonists; PMA 10 μM, PRO 5 μM, day 27-30
Protocol: as §1
Analytical flow cytometry: Day-30 cultures in 6-well plates were washed once in phosphate buffered saline (PBS) then 1 mL Accutase was added to each well and incubated for 25 mins at 37° C. or until the cells fully lifted. Cells were washed with an additional 2 mL Maturation Medium and very gently triturated until large clumps were no longer visible at which point cells were pelleted by centrifugation (1500 RPM for 3 mins). Cells were gently resuspended in 4% paraformaldehyde (PFA) in PBS and allowed to fix for 10-15 mins at room temperature. Fixed single cells were permeabilized using 1% Trition X-100 (Sigma-Aldrich) and stained using primary antibodies against TH (1:500 Immunostar, 22941), α-synuclein (1:1000 Abcam, ab138501), and MAP2ab (1:1000 Sigma-Aldrich, M1406), or isotype controls at same dilution (Cell Signaling IgG Isotype Control rabbit #3900S and mouse #5415S). Secondary antibodies (Alexa Fluor 488 and 594 donkey anti-mouse and donkey anti-rabbit, Invitrogen) were used at 1:500. Stained samples were quantified on an LSR Fortessa cytometer using BD FACSDiva software.
Immunocytochemistry and imaging: mDA neuron cultures were plated on L-glass coverslips and grown as above. Day 30 neurons were fixed in 4% PFA at room temperature for 10-15 mins. […]

In the case of `CCC/C=C/C=C/C(=O)O[C@H]1/C(=C/C(=O)OC)C[C@H]2C[C@H]([C@@H](C)O)OC(=O)C[C@H](O)C[C@@H]3C[C@H](OC(C)=O)C(C)(C)[C@](O)(C[C@@H]4C/C(=C/C(=O)OC)C[C@H](/C=C/C(C)(C)[C@]1(O)O2)O4)O3` [Bryostatin 1], the “phospho PKCα level” value (p-PKCα) is reported as “reduction”, the “phospho PKCα level” value (p-PKCα; listed as Bryostratin) is reported as “did not seem to affect” and the synuclein level (α-synuclein [1]) is reported as “unclear effects”. The synuclein level (α-synuclein [1]; listed as Bryostratin) was “did not seem to affect”.
With `CC(C)C[C@@H](C=O)NC(=O)[C@H](CC(C)C)NC(=O)[C@H](CC(C)C)NC(=O)OCc1ccccc1` [MG132] (Cbz-Leu-Leu-Leu-aldehyde) the “α-synuclein levels under proteasome inhibition” value (α-synuclein [2]) was “no significant increase; also recorded: no substantial change” and the P53 level (P53) was “accumulation”.
With `CCCCCCCCCCCCCC(=O)O[C@@H]1[C@@H](C)[C@@]2(O)[C@@H](C=C(CO)C[C@]3(O)C(=O)C(C)=C[C@@H]23)[C@@H]2C(C)(C)[C@]12OC(C)=O` [PMA, Phorbol 12-myristate 13-acetate] the p-PKCα level (p-PKCα; mDA cultures, phorbol ester PKC agonists, PMA 10 μM, PRO 5 μM, day 27-30) was “reduction”, the α-synuclein level (α-synuclein [1]; mDA cultures) was “reduction” and the TH level [3] was “increases”.
For `CC(=O)O[C@@]12C[C@@H](C)[C@@]3(O)[C@@H](C=C(CO)C[C@]4(O)C(=O)C(C)=C[C@@H]34)[C@@H]1C2(C)C` [PRO, Prostratin], the “α-synuclein expression, dose response” value (α-synuclein [1]; dose response study, mDA cultures) was “decreased”, the α-synuclein level (α-synuclein [1]; mDA cultures) was “reduction” and the TH level [3] was “increases”.
For `C=CCNc1ncnc2ccc(Br)cc12` [SMER28], the “α-synuclein levels (western blot)” value (α-synuclein [1]) was “not”, the “amount of α-synuclein protein (western blot)” value (α-synuclein [1]) was “significantly reduced” and the “amount of α-synuclein protein (western blot)” value (α-synuclein [1]; listed as SMER-28) was “reduction”.
`OC[C@H]1O[C@H](O[C@H]2O[C@H](CO)[C@@H](O)[C@H](O)[C@H]2O)[C@H](O)[C@@H](O)[C@@H]1O` [Trehalose] was tested, and the “α-synuclein levels (western blot)” value (α-synuclein [1]) was “reduced; also recorded: reduction”.
